# According to patent US20180193490A1, “Beta Amyloid Staging” (GE HEALTHCARE LIMITED, priority 2015, published 2018):
# Molecular target: T1, beta amyloid (Aβ) plaques in the brain (Homo sapiens, UniProt P05067)
# T1 construct: from tissue; host or cells: brain of living subjects (cortex and striatum), in vivo PET
# Assay: Provisional SUVR analysis of GE067-026 PET images (Cortex ID, cortex and striatal VOIs)
# Type: in vivo
# Conditions: for Cases C+S+ by SUVR analysis of cortical and striatal beta amyloid uptake / Cases C+S− by SUVR analysis of cortical and striatal beta amyloid uptake / Cases C−S+ by SUVR analysis of cortical and striatal beta amyloid uptake / Cases C−S− by SUVR analysis of cortical and striatal beta amyloid uptake: SUVRpons thresholds
# Procedure: Some work has been performed to assess the quantitative SUVR measures from the GE067-026 cohort.
# In an automated SUVR assessment methodology using GE software Cortex ID (J Lilja) PET images were quantitated using separate cortex and striatal VOIs. The SUVRs were determined for the cortical and striatal values using 3 different reference regions; whole cerebellum, cerebellar grey and pons.
# Thresholding was determined by multiple methods to identify which method provided the greatest accuracy (See Setting SUVR thresholds)
# The thresholds determined by ROC analysis for Phase 3 or above being abnormal gave the best sensitivity and specificity for cortical assessments. A similar approach gave the best sensitivity and specificity for the striatal assessments. Using the whole cerebellum as a reference region or pons as the reference region gave the best sensitivity and specificity (see Table 4).
# Combining these thresholds to determine cortical and striatal positivity based upon SUVRpons values gave similar results to those see by BIE assessment. Of 5 C+S− cases 3 […] were Thal phase 3.
# SUVR thresholds were set using two methods. • (1) Statistical determination • (2) Receiver operator characteristics
# For statically determined thresholds the algorithm depicted in FIG. 1 was applied. Briefly, all cases were identified as negative or positive based on histopathology. For the cortex this was based on the GE067-026 standard of truth^2—abnormal or normal based on any regional Bielschowsky score>1.5=abnormal and all regional scores≤1.5=normal. For the striatum this was based on the identification of “Frequent” plaques by amyloid-β IHC (4G8). The threshold determinations are calculated in the file Cortex ID SUVR thresholds.xlsx. ^2 For the GE067-007 and -026 autopsy trials the primary endpoint was Bielschowsky silver stain (BSS) scores of CERAD based neuritic plaque density. 0=none, 1=sparse, 2=moderate and 3=frequent. Multiple measures were averaged and the arithmetic mean between none/sparse (normal) and moderate/frequent (abnormal=1.5. Any case with a regional BSS score>1.5 was deemed abnormal.
# The SUVR means and standard deviations were calculated for normal and abnormal subjects for each of the SUVR measures; Cortex and striatum and for each of the SUVR reference regions. The threshold was determined to be the SUVR value at which the fractional standard deviation is equal between the two population means i.e. when the normal mean plus y times the normal SD is equal to the abnormal mean minus y times the abnormal SD.
# A statistically based threshold was determined for abnormal and normal cases (based on histopathology) and applied to cortical and striatal SUVRs separately.
# A variant of the above threshold was determined based upon the Thal phases. Thus the threshold for the cortex and striatum was determined between phase 0 and 1, between phase 1 and phase 2 . . . etc. This gave 15 threshold values (5 to discriminate each phase and 1 for each of the 3 reference regions; 15 in total)
# This is an empirically determined threshold that by definition identifies the threshold that gives the best sensitivity and specificity.
# Receiver operator characteristics analysis determines the sensitivity and specificity given a variable threshold. The most appropriate threshold is then determined by the maximum of the sum of the sensitivity and specificity.
# T1 sequence (P05067 672-713 limits assumed): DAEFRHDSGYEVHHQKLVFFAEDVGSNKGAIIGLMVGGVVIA
smiles,measurement,setting,value
CNc1ccc(-c2nc3ccc(O)cc3s2)cc1F [Flutemetamol],Cases C+S+ by SUVR analysis of cortical and striatal beta amyloid uptake,Amyloid Thal phase 0,0
same,Cases C+S− by SUVR analysis of cortical and striatal beta amyloid uptake,Amyloid Thal phase 0,0
same,Cases C−S+ by SUVR analysis of cortical and striatal beta amyloid uptake,Amyloid Thal phase 0,0
same,Cases C−S− by SUVR analysis of cortical and striatal beta amyloid uptake,Amyloid Thal phase 0,7
same,Cases C+S+ by SUVR analysis of cortical and striatal beta amyloid uptake,Amyloid Thal phase 1,0
same,Cases C+S− by SUVR analysis of cortical and striatal beta amyloid uptake,Amyloid Thal phase 1,0
same,Cases C−S+ by SUVR analysis of cortical and striatal beta amyloid uptake,Amyloid Thal phase 1,0
same,Cases C−S− by SUVR analysis of cortical and striatal beta amyloid uptake,Amyloid Thal phase 1,8
same,Cases C+S+ by SUVR analysis of cortical and striatal beta amyloid uptake,Amyloid Thal phase 2,0
same,Cases C+S− by SUVR analysis of cortical and striatal beta amyloid uptake,Amyloid Thal phase 2,0
same,Cases C−S+ by SUVR analysis of cortical and striatal beta amyloid uptake,Amyloid Thal phase 2,0
same,Cases C−S− by SUVR analysis of cortical and striatal beta amyloid uptake,Amyloid Thal phase 2,5
same,Cases C+S+ by SUVR analysis of cortical and striatal beta amyloid uptake,Amyloid Thal phase 3,1
same,Cases C+S− by SUVR analysis of cortical and striatal beta amyloid uptake,Amyloid Thal phase 3,3
same,Cases C−S+ by SUVR analysis of cortical and striatal beta amyloid uptake,Amyloid Thal phase 3,0
same,Cases C−S− by SUVR analysis of cortical and striatal beta amyloid uptake,Amyloid Thal phase 3,8
same,Cases C+S+ by SUVR analysis of cortical and striatal beta amyloid uptake,Amyloid Thal phase 4,16
same,Cases C+S− by SUVR analysis of cortical and striatal beta amyloid uptake,Amyloid Thal phase 4,1
same,Cases C−S+ by SUVR analysis of cortical and striatal beta amyloid uptake,Amyloid Thal phase 4,2
same,Cases C−S− by SUVR analysis of cortical and striatal beta amyloid uptake,Amyloid Thal phase 4,3
same,Cases C+S+ by SUVR analysis of cortical and striatal beta amyloid uptake,Amyloid Thal phase 5,44
same,Cases C+S− by SUVR analysis of cortical and striatal beta amyloid uptake,Amyloid Thal phase 5,1
same,Cases C−S+ by SUVR analysis of cortical and striatal beta amyloid uptake,Amyloid Thal phase 5,0
same,Cases C−S− by SUVR analysis of cortical and striatal beta amyloid uptake,Amyloid Thal phase 5,1
same,Sum of sensitivity and specificity,"Average over all thresholds, reference region Cer",163%
same,Sum of sensitivity and specificity,"Average over all thresholds, reference region Pons",168%
same,Sum of sensitivity and specificity,"Average over all thresholds, reference region Wcer",168%
same,Phase 3 cases identified as C+S− between the two methods (BIE and SUVR),BIE and SUVR combined,6
same,Sum of sensitivity and specificity,"CTX BSS ROC abnormality threshold, Average of reference regions",177%
same,Sum of sensitivity and specificity,"CTX BSS ROC abnormality threshold, reference region Cer",176%
same,Sum of sensitivity and specificity,"CTX BSS ROC abnormality threshold, reference region Pons",174%
same,Sum of sensitivity and specificity,"CTX BSS ROC abnormality threshold, reference region Wcer",180%
same,Sum of sensitivity and specificity,"CTX Max Mirra ROC abnormality threshold, Average of reference regions",170%
same,Sum of sensitivity and specificity,"CTX Max Mirra ROC abnormality threshold, reference region Cer",170%
same,Sum of sensitivity and specificity,"CTX Max Mirra ROC abnormality threshold, reference region Pons",167%
same,Sum of sensitivity and specificity,"CTX Max Mirra ROC abnormality threshold, reference region Wcer",173%
same,Sum of sensitivity and specificity,"CTX Mirra mode ROC abnormality threshold, Average of reference regions",172%
same,Sum of sensitivity and specificity,"CTX Mirra mode ROC abnormality threshold, reference region Cer",170%
same,Sum of sensitivity and specificity,"CTX Mirra mode ROC abnormality threshold, reference region Pons",173%
same,Sum of sensitivity and specificity,"CTX Mirra mode ROC abnormality threshold, reference region Wcer",174%
same,Sum of sensitivity and specificity,"CTX Phase1 threshold, Average of reference regions",139%
same,Sum of sensitivity and specificity,"CTX Phase1 threshold, reference region Cer",142%
same,Sum of sensitivity and specificity,"CTX Phase1 threshold, reference region Pons",129%
same,Sum of sensitivity and specificity,"CTX Phase1 threshold, reference region Wcer",145%
same,Sum of sensitivity and specificity,"CTX Phase2 threshold, Average of reference regions",155%
same,Sum of sensitivity and specificity,"CTX Phase2 threshold, reference region Cer",153%
same,Sum of sensitivity and specificity,"CTX Phase2 threshold, reference region Pons",158%
same,Sum of sensitivity and specificity,"CTX Phase2 threshold, reference region Wcer",152%
same,Sum of sensitivity and specificity,"CTX Phase 3 + ROC abnormality threshold, Average of reference regions",183%
same,Sum of sensitivity and specificity,"CTX Phase 3 + ROC abnormality threshold, reference region Cer",180%
same,Sum of sensitivity and specificity,"CTX Phase 3 + ROC abnormality threshold, reference region Pons",186%
same,Sum of sensitivity and specificity,"CTX Phase 3 + ROC abnormality threshold, reference region Wcer",182%
same,Sum of sensitivity and specificity,"CTX Phase3 threshold, Average of reference regions",161%
same,Sum of sensitivity and specificity,"CTX Phase3 threshold, reference region Cer",153%
same,Sum of sensitivity and specificity,"CTX Phase3 threshold, reference region Pons",166%
same,Sum of sensitivity and specificity,"CTX Phase3 threshold, reference region Wcer",166%
same,Sum of sensitivity and specificity,"CTX Phase 4 + ROC abnormality threshold, Average of reference regions",179%
same,Sum of sensitivity and specificity,"CTX Phase 4 + ROC abnormality threshold, reference region Cer",176%
same,Sum of sensitivity and specificity,"CTX Phase 4 + ROC abnormality threshold, reference region Pons",182%
same,Sum of sensitivity and specificity,"CTX Phase 4 + ROC abnormality threshold, reference region Wcer",180%
same,Sum of sensitivity and specificity,"CTX Phase4 threshold, Average of reference regions",177%
same,Sum of sensitivity and specificity,"CTX Phase4 threshold, reference region Cer",173%
same,Sum of sensitivity and specificity,"CTX Phase4 threshold, reference region Pons",179%
same,Sum of sensitivity and specificity,"CTX Phase4 threshold, reference region Wcer",179%
same,Sum of sensitivity and specificity,"CTX Phase5 threshold, Average of reference regions",136%
same,Sum of sensitivity and specificity,"CTX Phase5 threshold, reference region Cer",132%
same,Sum of sensitivity and specificity,"CTX Phase5 threshold, reference region Pons",142%
same,Sum of sensitivity and specificity,"CTX Phase5 threshold, reference region Wcer",133%
same,Sum of sensitivity and specificity,"CTX abnormality statistical threshold, Average of reference regions",176%
same,Sum of sensitivity and specificity,"CTX abnormality statistical threshold, reference region Cer",174%
same,Sum of sensitivity and specificity,"CTX abnormality statistical threshold, reference region Pons",175%
same,Sum of sensitivity and specificity,"CTX abnormality statistical threshold, reference region Wcer",180%
same,Sum of sensitivity and specificity,"STR Phase1 threshold, Average of reference regions",144%
same,Sum of sensitivity and specificity,"STR Phase1 threshold, reference region Cer",135%
same,Sum of sensitivity and specificity,"STR Phase1 threshold, reference region Pons",147%
same,Sum of sensitivity and specificity,"STR Phase1 threshold, reference region Wcer",150%
same,Sum of sensitivity and specificity,"STR Phase2 threshold, Average of reference regions",138%
same,Sum of sensitivity and specificity,"STR Phase2 threshold, reference region Cer",135%
same,Sum of sensitivity and specificity,"STR Phase2 threshold, reference region Pons",135%
same,Sum of sensitivity and specificity,"STR Phase2 threshold, reference region Wcer",144%
same,Sum of sensitivity and specificity,"STR Phase3 threshold, Average of reference regions",173%
same,Sum of sensitivity and specificity,"STR Phase3 threshold, reference region Cer",164%
same,Sum of sensitivity and specificity,"STR Phase3 threshold, reference region Pons",178%
same,Sum of sensitivity and specificity,"STR Phase3 threshold, reference region Wcer",179%
same,Sum of sensitivity and specificity,"STR Phase4 threshold, Average of reference regions",183%
same,Sum of sensitivity and specificity,"STR Phase4 threshold, reference region Cer",180%
same,Sum of sensitivity and specificity,"STR Phase4 threshold, reference region Pons",186%
same,Sum of sensitivity and specificity,"STR Phase4 threshold, reference region Wcer",183%
same,Sum of sensitivity and specificity,"STR Phase5 threshold, Average of reference regions",158%
same,Sum of sensitivity and specificity,"STR Phase5 threshold, reference region Cer",151%
same,Sum of sensitivity and specificity,"STR Phase5 threshold, reference region Pons",165%
same,Sum of sensitivity and specificity,"STR Phase5 threshold, reference region Wcer",157%
same,Sum of sensitivity and specificity,"STR ROC abnormality threshold, Average of reference regions",187%
same,Sum of sensitivity and specificity,"STR ROC abnormality threshold, reference region Cer",185%
same,Sum of sensitivity and specificity,"STR ROC abnormality threshold, reference region Pons",188%
same,Sum of sensitivity and specificity,"STR ROC abnormality threshold, reference region Wcer",187%
same,Sum of sensitivity and specificity,"STR abnormality statistical threshold, Average of reference regions",184%
same,Sum of sensitivity and specificity,"STR abnormality statistical threshold, reference region Cer",182%
same,Sum of sensitivity and specificity,"STR abnormality statistical threshold, reference region Pons",187%
same,Sum of sensitivity and specificity,"STR abnormality statistical threshold, reference region Wcer",185%
same,Share of C+S− cases that were Thal phase 3,SUVRpons values,66%
same,C+S− cases by SUVR thresholds,"SUVRpons values, all Thal phases",5
same,Thal phase 3 C+S− cases by SUVR analysis in common with those identified by BIE assessment,of the 3 Thal phase 3 C+S− cases by SUVR,two
